The text below walks through data of patent US20250353873A1, “COMPOUNDS AND METHODS FOR MODULATING APOE EXPRESSION” (Ionis Pharmaceuticals, Inc., priority 2024, published 2025).

What is called IC50 is the concentration needed to halve the response being measured. Read a low IC50 as higher potency.

Strand notation (5' to 3'): a small letter for the sugar, then the base; units joined by * are phosphorothioate-linked, units joined directly phosphodiester-linked; [ ] holds rarer units or linkages, { } end groups; capitals alone tell only the bases. [ms] = mesyl phosphoramidate linkage; e = 2'-O-(2-methoxyethyl) (MOE); k = constrained ethyl (cEt); [5mC] = 5-methylcytosine; d = 2'-deoxy (DNA)

For data set [1], the system named is human APOE RNA. The experiment in a line: Dose-dependent inhibition of human APOE RNA in HepG2 cells, electroporation, 50,000 cells per well, RT-PCR normalized to GAPDH (Example 4, Tables 8-10). The data set is classed as cell-based. As to conditions: HepG2 cells, electroporation, Table 8. The procedure, abridged:
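HepG2 cells, 50,000 per well, electroporated with modified oligonucleotide at various concentrations. APOE RNA quantified by RT-PCR with human primer probe set RTS3073, normalized to GAPDH. Values are percent APOE RNA relative to untreated control cells.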

The subject of data set [2] is human APOE RNA. The experiment in a line: Dose-dependent inhibition of human APOE RNA in differentiated SH-SY5Y cells, free uptake, 5 days (Example 5). The data set is classed as cell-based. The protocol:
Modified oligonucleotides selected from the examples above were tested at various doses in differentiated SH-SY5Y cells. The modified oligonucleotides were tested in a series of experiments that had the same culture conditions.
Differentiated SH-SY5Y cells plated at a density of 10,000 cells per well were treated by free uptake with various concentrations of modified oligonucleotide as specified in the tables below. […] APOE RNA levels were measured using the human primer probe set RTS3073 (described herein above). APOE RNA levels were normalized to human PPIA. Human PPIA was amplified using human primer probe set mk_cycloA_2nd (described herein above). Results are presented as percent APOE RNA, relative to the amount of APOE RNA in untreated control cells (% UTC). The half maximal inhibitory concentration (IC50) of each modified oligonucleotide was calculated in GraphPad Prism 10 (GraphPad Software, San Diego, CA) and is also presented in the tables below.

For data set [3], the system named is human APOE RNA. Put plainly: Activity in APOE C57BL/6NTac-Apoeem7250 knock-in mice, single ICV bolus, 4 weeks (Example 10). Particulars: single ICV bolus 300 μg, 4 weeks post treatment, normalized to mouse Ppia. The data set is classed as in vivo. The gist of the method: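 Knock-in mice (2–4 per group) received one 300 μg ICV bolus of oligonucleotide or PBS. After four weeks, human APOE RNA in cortex and spinal cord measured by RT-qPCR (primer probe set RTS3073), normalized to mouse Ppia, expressed as % of PBS controls.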

Data set [4] relates to human APOE RNA. Put plainly: Activity in APOE C57BL/6NTac-Apoeem7250 knock-in mice, single ICV bolus, 8 weeks (Example 11). The format is in vivo. As to conditions: for APOE RNA (% control) Cortex / APOE RNA (% control) Spinal Cord: single ICV bolus 300 μg, 8 weeks post treatment, normalized to mouse Ppia. The gist of the method: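 Human APOE knock-in C57BL/6NTac mice given one ICV bolus of 300 μg oligonucleotide; PBS-dosed group as control. At 8 weeks, cortex and spinal cord RNA measured by qRT-PCR (human probe RTS3073), normalized to mouse Ppia, expressed as % of PBS control.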

Data set [5] relates to human APOE RNA. Put plainly: Activity in APOE C57BL/6NTac-Apoeem7250 knock-in mice, single ICV bolus, 20 weeks (Example 13). Particulars: single ICV bolus 300 μg, 20 weeks post treatment, normalized to mouse Ppia. The format is in vivo. The gist of the method: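 Knock-in mice (n=4) given a single ICV bolus of 300 μg oligonucleotide, PBS as control. After 20 weeks, human APOE RNA in cortex and spinal cord measured by RT-qPCR, normalized to mouse Ppia, expressed as % of PBS-treated animals.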

Turning to “1778130: modified oligonucleotide complementary to human APOE RNA (eA*e[5mC]eTeTeG*kG*dT*dG[ms]dA[ms]dA*dT*d[5mC]*dT*dT*dT*dA[ms]kTkT*eA*eA; antisense) [compound 1778130]”, in data set [1] (24-hour treatment, 5 nM), the “APOE RNA (% UTC) 5 nM” value is reported as 100 % UTC. Further, in data set [1] (24-hour treatment, 13 nM), the “APOE RNA (% UTC) 13 nM” value is 106 % UTC. The “APOE RNA (% UTC) 33 nM” value in data set [1] (24-hour treatment, 33 nM) is recorded as 93 % UTC. The “APOE RNA (% UTC) 82 nM” value in data set [1] (24-hour treatment, 82 nM) amounted to 75 % UTC. Also, the “APOE RNA (% UTC) 205 nM” value in data set [1] (24-hour treatment, 205 nM) was found to be 61 % UTC. Moreover, the “APOE RNA (% UTC) 512 nM” value in data set [1] (24-hour treatment, 512 nM) was determined as 44 % UTC. For the same substance, the “APOE RNA (% UTC) 1,280 nM” value in data set [1] (24-hour treatment, 1,280 nM) amounted to 26 % UTC. In addition, in data set [1] (24-hour treatment, 3,200 nM), the “APOE RNA (% UTC) 3,200 nM” value is listed as 19 % UTC. For the same substance, the “APOE RNA (% UTC) 8,000 nM” value in data set [1] (24-hour treatment, 8,000 nM) was found to be 10 % UTC. Also, the “APOE RNA (% UTC) 20,000 nM” value in data set [1] (24-hour treatment, 20,000 nM) is given as 6 % UTC. Moreover, the IC50 in data set [1] (reduction of human APOE RNA, 24-hour treatment) was 0.4 µM; in data set [2] (5 days (Table 14)) it was 0.37 µM. The “APOE RNA (% UTC)” value in data set [2] (5 nM, 5 days (Table 14)) was determined as 78 % UTC; in data set [2] (13 nM, 5 days (Table 14)), 75 % UTC; in data set [2] (33 nM, 5 days (Table 14)), 75 % UTC; in data set [2] (82 nM, 5 days (Table 14)), 51 % UTC; in data set [2] (205 nM, 5 days (Table 14)), 54 % UTC; in data set [2] (512 nM, 5 days (Table 14)), 56 % UTC. Besides, the “APOE RNA (% UTC)” value in data set [2] (1,280 nM, 5 days (Table 14)) came out at 51 % UTC; in data set [2] (3,200 nM, 5 days (Table 14)), 31 % UTC; in data set [2] (8,000 nM, 5 days (Table 14)), 24 % UTC; in data set [2] (20,000 nM, 5 days (Table 14)) it was 12 % UTC. Besides, the entries for the “APOE RNA (% control) Cortex” value in data set [3] (cortex), in data set [4] and in data set [5] (cortex) were 31 % control, 23 % control and 48 % control, respectively. Moreover, the figures for the “APOE RNA (% control) Spinal Cord” value in data set [3] (spinal cord), in data set [4] and in data set [5] (spinal cord) were 34 % control, 18 % control and 19 % control, respectively.
As to “TezTeoGeoGksTdsGdzAdzAdzTds^mCdsTdsTdsTdsAdzTksTksAesAesAes^mCe (antisense eT[ms]eTeGkG*dT*dG[ms]dA[ms]dA[ms]dT*d[5mC]*dT*dT*dT*dA[ms]kT*kT*eA*eA*eA*e[5mC]) [Compound No. 1809814]”, the “APOE RNA (% UTC)” value is given as 91 % UTC in data set [2] (5 nM, 5 days (Table 13)); 66 % UTC in data set [2] (13 nM, 5 days (Table 13)); 61 % UTC in data set [2] (33 nM, 5 days (Table 13)); 63 % UTC in data set [2] (82 nM, 5 days (Table 13)); 47 % UTC in data set [2] (205 nM, 5 days (Table 13)); 53 % UTC in data set [2] (512 nM, 5 days (Table 13)). In addition, the “APOE RNA (% UTC)” value in data set [2] (1,280 nM, 5 days (Table 13)) amounted to 39 % UTC; in data set [2] (3,200 nM, 5 days (Table 13)) it was 39 % UTC; in data set [2] (8,000 nM, 5 days (Table 13)), 41 % UTC; in data set [2] (20,000 nM, 5 days (Table 13)) it was 33 % UTC. Further, the IC50 in data set [2] (5 days (Table 13)) was found to be 0.55 µM. Besides, in data set [4] (APOE knock-in mouse model, 8 weeks post administration, assay of Example 11), the “reduction of human APOE RNA in the cortex” value came to 64%. The “APOE RNA (% control) Cortex” value in data set [4] turned out to be 36 % control. The “APOE RNA (% control) Spinal Cord” value in data set [4] is 33 % control.
